{"source": "paper PMC12295306", "about": "“Gut Microbial Postbiotics as Potential Therapeutics for Lymphoma: Proteomics Insights of the Synergistic Effects of Nisin and Urolithin B Against Human Lymphoma Cells” (International Journal of Molecular Sciences, 2025)", "key": {"HKB-11 lymphoma cells [1]": {"system": "HKB-11 lymphoma cells", "assay": "Flow cytometry apoptosis profile, Annexin V-CF Blue / 7-AAD", "format": "cell-based, human", "conditions": "HKB-11, 4 µM, 24 h; p ≤ 0.0001", "experimental": "The HKB-11 cells were cultured in T75 cell culture flasks with an initial density of 1 × 10^6 cells per 10 mL at 37 °C in the presence of 5% CO2 for 24 h. The following day, the cell culture media was removed from each flask and replaced with fresh FBS-containing media. […] An FBS-containing medium was used as the untreated control. The flasks were then incubated at 37 °C with 5% CO2 for 24 h. Then, the cell culture media from each flask were collected. Subsequently, trypsin (0.25% w/v) was applied to the flasks for 4 min at 37 °C. The trypsin reaction was neutralised with an equal volume of 10% FBS serum-containing media, and the cells were combined with the previously collected media. The cell pellets were obtained by centrifuging at 500× g for 5 min at room temperature (RT). This procedure was repeated by suspending the cell pellets in 1 mL of PBS each time. The collected cell pellets from each treatment were immediately suspended in 500 μL of 1× binding buffer and gently mixed by pipetting. Annexin V-CF Blue (5 μL) and 7-AAD (5 μL) staining solutions were added to 100 μL of the cell suspension. The stained cells were incubated for 15 min in the dark at RT, after which 400 μL of a 1× assay buffer was added to each cell suspension. Subsequently, the cells were examined using a flow cytometer (Novocyte 3000, ACEA Biosciences Inc., San Diego, CA, USA), and data analysis and processing were performed using NovoExpress software (version 1.5.0, ACEA Biosciences Inc., CA, USA). In the initial step, the cells were gated on forward and side scatter modes to exclude cell aggregates and debris near the origin. The cells were then gated on dot plots, where Annexin V-CF in Pacific Blue was plotted against 7-AAD fluorescence in PerCP. Quadrants were positioned relative to the untreated control, indicating live cells ([…] and −7-AAD) appearing in the lower-left quadrant, early apoptotic cells (+Annexin V and −7-AAD) in the lower-right quadrant, late apoptotic cells (+Annexin V and +7-AAD) in the upper-right quadrant, and necrotic cells (−Annexin V and +7-AAD) in the upper-left quadrant. For statistical analyses and visualisation, the percentage data of cells in each quadrant after different treatments (n = 3) were exported to GraphPad Prism software (version 9.0, San Diego, CA, USA)."}, "HKB-11 lymphoma cells [2]": {"system": "HKB-11 lymphoma cells", "assay": "ROS production, H2DCFDA assay", "format": "cell-based, human", "conditions": "4 h", "experimental": "Briefly, HKB-11 lymphoma cells (2.5 × 10^5 cells/mL) were cultured in a 96-well plate, allowed to adhere overnight, and treated with 20 μM H2DCFDA for 45 min to assess ROS levels. The dye solution was removed, and cells were washed with 1× buffer. Next, the cells were treated with N (8000 μM), N (4000 μM), UB (500 μM), UB (250 μM), N/UB (3500 μM), N/UB (1750 μM), N/UB (5750 μM), N/UB (2875 μM), Dox (4 μM), and tert-butyl hydroperoxide (TBHP) (150 μM) and then incubated at 37 °C for 4 h. Finally, the plate was immediately read at Ex/Em = 485/535 nm using a microplate spectrophotometer (BMG CLARIOstar, VIC, Australia). The fold change in ROS production was determined relative to the untreated control (cells treated with the supplement buffer according to the manufacturer’s protocol)."}, "[3]": {"system": "HKB-11 human lymphoma cells", "assay": "Alamar Blue antiproliferative assay, HKB-11", "format": "cell-based", "conditions": "HKB-11, 72 h, single postbiotics, GraphPad Prism nonlinear regression; for IC50: read-out: IC50 (concentration required to inhibit 50% of cell growth)", "experimental": "The cell viability of the HKB-11, Hs 313.T, and HS-5 cells after treatment with different concentrations of the seven different postbiotics, including SCFA salts (magnesium acetate, sodium propionate, and sodium butyrate), UA and UB, purine nucleoside (inosine), and bacteriocin (N), was determined using the Alamar Blue assay as per the method described earlier. Briefly, 100 μL of cells was cultured in 96-well plates at a 3 × 10^5 cells/mL seeding density. After 24 h, the cells were treated with 16,000 µM of each postbiotic except for the urolithins, which were applied at 500 µM using a 1:2 serial dilution across a 10-point dose–response curve, followed by a 72 h incubation. A positive control using doxorubicin was prepared at a concentration of 4 μM, and an untreated control with 0.1% DMSO was added to every plate. At the end of the incubation period, the culture media were removed, and 100 μL of a 0.1 mg/mL Alamar Blue solution (resazurin, prepared as a stock solution at 1 mg/mL in freshly made PBS, followed by a 1:10 dilution with serum-free media) was added to each well. The fluorescence levels were assessed using a microplate spectrophotometer (BMG CLARIOstar, Mornington, VIC, Australia) with an excitation wavelength of 555 nm and emission measurement at 595 nm. The compounds were tested in triplicate, with the untreated control taken as 100% cell viability.\nData were collected and managed using MS Office Excel and GraphPad Prism for statistical analyses and visualisation. Data collection and analyses were carried out in triplicate, and the outcomes were presented as the mean ± standard deviation. Statistical significance between the mean values was determined at p ≤ 0.05 employing a two-way ANOVA. Tukey and Dunnett’s tests were utilised within GraphPad Prism software to perform nonlinear regression and multiple comparisons. Furthermore, GraphPad Prism software computed the IC50 value (representing the drug concentration required to achieve a 50% cell growth inhibition). The experimental groups in the proteomics study were compared statistically using unpaired t-tests, assuming equal variances. Candidate proteins were selected based on an absolute log2 fold change ≥ 0.58 and a Q-value ≤ 0.05. Enrichment analysis was subsequently conducted using Ingenuity Pathway Analysis (IPA), applying a significance threshold of adjusted Q ≤ 0.05 to identify functionally enriched pathways, focusing on those with an absolute z-score of ≥1."}}}
{"smiles": "COc1cccc2c1C(=O)c1c(O)c3c(c(O)c1C2=O)C[C@@](O)(C(=O)CO)C[C@@H]3O[C@H]1C[C@H](N)[C@H](O)[C@H](C)O1", "note": "[Dox, doxorubicin, reference compound]", "values": [{"measurement": "Apoptosis induction (positive control)", "setting": "HKB-11 lymphoma cells [1]", "result": "significantly induced apoptosis"}, {"measurement": "Necrotic cell death compared to the untreated control and other treatment groups", "setting": "HKB-11 lymphoma cells [1]", "result": "markedly higher proportion of necrotic cell death"}, {"measurement": "ROS production (positive control)", "setting": "HKB-11 lymphoma cells [2]; HKB-11, 4 μM", "result": "induced high ROS production"}]}
{"smiles": "O=c1[nH]cnc2c1ncn2[C@@H]1O[C@H](CO)[C@@H](O)[C@H]1O", "note": "[Inosine, inosine]", "values": [{"measurement": "IC50 (concentration required to inhibit 50% of cell growth)", "setting": "[3]", "result": "could not be calculated"}]}
{"smiles": "CC(=O)[O-].CC(=O)[O-].[Mg+2]", "note": "[Magnesium Acetate, magnesium acetate]", "values": [{"measurement": "IC50 (concentration required to inhibit 50% of cell growth)", "setting": "[3]", "result": "could not be calculated"}]}
{"smiles": "CCCC(=O)[O-].[Na+]", "note": "[Sodium Butyrate, sodium butyrate]", "values": [{"measurement": "IC50", "setting": "[3]", "result": 2020, "unit": "µM"}]}
{"smiles": "CCC(=O)[O-].[Na+]", "note": "[Sodium Propionate, sodium propionate]", "values": [{"measurement": "IC50", "setting": "[3]", "result": 14600, "unit": "µM"}]}
{"smiles": "CC(C)(C)OO", "note": "[TBHP, tert-butyl hydroperoxide, reference compound]", "values": [{"measurement": "ROS production (positive control)", "setting": "HKB-11 lymphoma cells [2]; HKB-11, 150 μM", "result": "induced high ROS production"}]}
{"smiles": "O=c1oc2cc(O)ccc2c2ccc(O)cc12", "note": "[UA, Urolithin A]", "values": [{"measurement": "IC50", "setting": "[3]", "result": 384, "unit": "µM"}]}
